Experimental findings from patent publication US8236337B2, “Anti-microbial orthodontic compositions and appliances and methods of production and use thereof” (Selenium, Ltd., priority 2005, dated 2012) are described below.

System in the first data set: not listed separately
Kind of data set: Superoxide radical generation by selenium modified bonding agent coated on a surface, measured by chemiluminescence; leaching check of soak water. The note with it: mixed with AAEMA to final selenium concentration of 5%, coated on PMMA plastic or human toenail and dried. On the procedure:
In this hydrophobic mixing experiment, a selenium compound comprising a CN protecting group [2-(selenocyanatoacetoxy)butoxyethyl methacrylate] was mixed with the bonding agent 2-(Acetoacetoxy)ethylmethacrylate (AAEMA) to a final selenium concentration of 5%. The selenium composition was then applied to a surface, such as a PMMA plastic or a human toenail (results with both surfaces were the same), preferably at a concentration of about 100 mg/cm^2. The ability of the selenium modified bonding agent to generate superoxide radicals was then measured by chemiluminescence, as shown in FIG. 1. In FIG. 1, “Crude 1” and “Crude 2” refer to a mixture of the selenium labeled material with AAEMA; “pure” refers to the pure selenium labeled compound (no AAEMA); “blank” refers to the AAEMA with no selenium; for “plastic removed”, the mixture-coated plastic was soaked in water, and then after removal of the plastic, the aqueous solution was tested for any selenium that may have come off.
`C=C(C)C(=O)OCCOCC(CC)OC(=O)C[Se]C#N` (centres unmarked) [2-(selenocyanatoacetoxy)butoxyethyl methacrylate]: the “ability to generate superoxide radicals (chemiluminescence)” value is given as “still demonstrating chemiluminescence”.

Still in this data set, the particulars now being: mixture-coated plastic soaked in water, aqueous solution tested by chemiluminescence after removal of plastic.
On to `C=C(C)C(=O)OCCOCC(CC)OC(=O)C[Se]C#N` (centres unmarked) [2-(selenocyanatoacetoxy)butoxyethyl methacrylate], for which the “leaching of selenium from coated plastic ("plastic removed" sample)” value was “no significant leaching”.

The next data set has as its system Biofilm formation. Kind of data set: Inhibition of biofilm formation by selenium compounds (Example 4).
Settings: not given
Set-up: Percent inhibition of Biofilm formation: concentration or dose not given beside the values. The format is cell-based.
With `Cl.Cl.NCC[Se][Se]CCN` [Selenocystamine 2HCl], the “Biofilm formation, log reduction” value is 5 logs and the “Percent inhibition of Biofilm formation” value amounted to 99.999%.

`C1CCC(C[Se][Se]CC2CCCCC2)CC1` [1,2-Bis(cyclohexylmethyl)diselenide]: the “Percent inhibition of Biofilm formation” value stood at 98%.

For the molecule `CC(O)C(O)[Se]C#N` (centres unmarked) [1-selenocyanato,2-hydroxy propanol], the “Biofilm formation, log reduction” value is recorded as 8 logs and the “Percent inhibition of Biofilm formation” value amounted to 100%.

`NCC[Se-].[Na+]` [Sodium 1-amino,2-seleno ethane]: the “Biofilm formation, log reduction” value is 3 logs and the “Percent inhibition of Biofilm formation” value stood at 99.9%.

3,4-Bis(selenyl)ethanoic acid: the “Biofilm formation, log reduction” value came to 8 logs and the “Percent inhibition of Biofilm formation” value is reported as 100%.

For `C=C(C)C(=O)OCCOC(=O)CC(C)OC(=O)CC[Se][Se]CCC(=O)OC(C)CC(=O)OCCOC(=O)C(=C)C` (centres unmarked) [3-[3-(2-{1-Methyl-2-[2-(2-methyl-acryloyloxy)-ethoxycarbonyl]-ethoxycarbonyl}-ethyldiselenyl)-propionyloxy]-butyric acid 2-(2-methyl-acryloyloxy)-ethyl ester], the “Biofilm formation, log reduction” value stood at 8 logs and the “Percent inhibition of Biofilm formation” value is 100%.

On to 3,4-Bis(selenyl)propionic acid, for which the “Biofilm formation, log reduction” value was found to be 2 logs and the “Percent inhibition of Biofilm formation” value is given as 99%.

With `CC(NC(=O)OCC1c2ccccc2-c2ccccc21)[Se]C#N` (centres unmarked) [Fmoc-1-amino,1-selenocyanato ethane], the “Biofilm formation, log reduction” value is recorded as 8 logs and the “Percent inhibition of Biofilm formation” value stood at 100%.

`N#C[Se]CCN` [1-amino,2-selenocyanato ethane]: the “Biofilm formation, log reduction” value came to 5 logs and the “Percent inhibition of Biofilm formation” value was 99.999%.

Turning to `c1ccc([Se][Se]c2ccccc2)cc1` [1,2-Bis(phenyl)diselenide], the “Biofilm formation, log reduction” value was 8 logs and the “Percent inhibition of Biofilm formation” value is recorded as 100%.

In the case of 3,4-Bis(selenyl)2-hydroxy propanol, the “Biofilm formation, log reduction” value amounted to 8 logs and the “Percent inhibition of Biofilm formation” value is recorded as 100%.
